In the assay the target is T1, PBP2 from Neisseria gonorrhoeae (FA19) (Neisseria gonorrhoeae, UniProt P08149).
T1 construct: made in house
Kind of assay: Bocillin-FL fluorescence polarization competition binding, N. gonorrhoeae PBP2. The conditions noted are these: fluorescence polarization competition binding assay using Bocillin-FL, read-out: N. gonorrhoeae PBP2 Potency. An outline of the steps: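 Fluorescence polarization competition with 0.1 μM Bocillin-FL (fluorescent penicillin V) against 0.25 μM N. gonorrhoeae FA19 PBP2 in 50 mM Hepes pH 8.0, 300 mM NaCl, 10% glycerol. Boronic acid inhibitors were preincubated with PBP, then Bocillin-FL was added and FP read (490/520 nm) up to 60 min. EC50 is the concentration halving PBP-bound Bocillin-FL.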
Background: In fluorescence polarisation assays a small probe gives low polarisation when free and higher when bound to something large.

T1 sequence (P08149 whole entry): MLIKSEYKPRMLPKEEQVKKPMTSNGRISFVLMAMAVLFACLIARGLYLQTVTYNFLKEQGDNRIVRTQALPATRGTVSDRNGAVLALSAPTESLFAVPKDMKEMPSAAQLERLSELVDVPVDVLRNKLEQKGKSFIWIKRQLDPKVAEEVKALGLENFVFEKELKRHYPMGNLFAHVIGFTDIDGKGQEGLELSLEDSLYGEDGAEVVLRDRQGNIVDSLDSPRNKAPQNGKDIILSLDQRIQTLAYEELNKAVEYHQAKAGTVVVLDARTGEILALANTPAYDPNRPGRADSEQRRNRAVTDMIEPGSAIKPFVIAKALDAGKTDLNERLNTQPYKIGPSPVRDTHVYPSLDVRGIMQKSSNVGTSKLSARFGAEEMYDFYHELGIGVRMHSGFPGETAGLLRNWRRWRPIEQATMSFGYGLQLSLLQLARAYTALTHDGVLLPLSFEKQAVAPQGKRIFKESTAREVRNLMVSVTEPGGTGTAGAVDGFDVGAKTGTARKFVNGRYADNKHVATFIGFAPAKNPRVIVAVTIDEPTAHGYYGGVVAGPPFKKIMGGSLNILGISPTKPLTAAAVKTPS

For `CCN1CCN(C(=O)NC(C(=O)N[C@H]2Cc3cccc(C(=O)O)c3OB2O)c2ccc(P(=O)(O)O)c(F)c2O)C(=O)C1=O` (stereo partly drawn) [Example 198, (3R)-3-(2-(4-ethyl-2,3-dioxopiperazine-1-carboxamido)-2-(3-fluoro-2-hydroxy-4-phosphonophenyl)acetamido)-2-hydroxy-3,4-dihydro-2H-benzo[e][1,2]oxaborinine-8-carboxylic acid], the EC50 was less than 10 µM.
